{"source": "patent US20130144250A1", "about": "“IMPLANTABLE DRUG DELIVERY COMPOSITIONS AND METHODS OF TREATMENT THEREOF” (Endo Pharmaceuticals Solutions Inc., priority 2011, published 2013)", "key": {"[1]": {"details": "cited from earlier work"}, "[2]": {"assay": "In vitro elution of the API from implants in an elution bath of 0.9% saline at 37° C., exchanges analyzed by HPLC", "assay_type": "physicochemical", "method": "The testing method set forth in the examples to determine the elution rates for the respective actives included placing the implants in an elution bath consisting of 50 mL 0.9% saline at 37° C. Weekly exchanges of the elution media were analyzed by HPLC for the durations given.\nA drug implant was manufactured as described in Example 1 using an aliphatic, polyether-based polyurethane (TECOFLEX® EG-93A polyurethane) as the tubing material. […] Nine pellets of the anastrozole blend were then placed inside the tubing. A total of about 370 mg anastrozole per implant was used. The implants were sterilized by gamma irradiation and placed in an elution bath of 0.9% saline (50 mL) at 37° C. Regular exchanges of the elution media were analyzed by HPLC for over 400 days.\nImplants D and E were then tested for in vitro elution, as described in Example 2.\nThe implants were sterilized by gamma irradiation and placed in an elution bath of 0.9% saline (200 mL) at 37° C.\nDrug containing pellets were manufactured as described in Example 1, and the polymeric sorption enhancer croscarmellose sodium was added to the drug blend. Nine pellets of a drug blend with various concentrations of anastrozole and croscarmellose, with the remainder being 2% stearic acid as lubricant, were placed into a polyurethane tubing (TECOFLEX® EG-93A). The implants were sterilized by gamma irradiation and placed in an elution batch consisting of 50 mL saline at 37° C. Weekly exchanges of the elution media were analyzed by HPLC for 13 weeks.\nDrug containing pellets were manufactured as described in Example 1, and the polymeric sorption enhancer croscarmellose sodium was added to the drug blend. […] The implants were sterilized by gamma irradiation and placed in an elution batch consisting of 500 mL saline at 37° C. Weekly exchanges of the elution media were analyzed by HPLC for 11 weeks.\nA total of about 250 mg fingolimod were loaded into the implants with 10% croscarmellose and 2% stearic acid. The implants were sterilized by gamma irradiation and placed in an elution batch consisting of 800 mL 0.9% saline at 37° C. Weekly exchanges of the elution media were analyzed by HPLC for up to 30 weeks.\nThe drug implants were manufactured as described in Example 26 using TECOFLEX® EG-80A, TECOFLEX® EG-85A, TECOFLEX® EG-93A, TECOFLEX® EG-100A, TECOFLEX® EG-65D, or TECOFLEX® EG-68D polyurethanes as the tubing materials and varenicline tartrate as the API. […] A total of about 350 mg varenicline tartrate were loaded into each implant with 10% croscarmellose and 2% stearic acid. The implants were sterilized by gamma irradiation and placed in an elution batch consisting of 200 mL 0.9% saline at 37° C. Weekly exchanges of the elution media were analyzed by HPLC for up to 11 weeks.\nThe drug implant was manufactured as described in Example 26 using TECOFLEX® EG-93A polyurethane as the tubing material and varenicline free base as the API. […] A total of about is 250 mg varenicline free base were loaded into the implant with 10% croscarmellose and 2% stearic acid. The implant was sterilized by gamma irradiation and placed in an elution batch consisting of 100 mL 0.9% saline at 37° C."}, "[3]": {"details": "human, in vivo, po"}, "estrogen formation [4]": {"system": "estrogen formation", "details": "indirect effect model with sigmoidal inhibitory drug effect"}, "estrogen formation [5]": {"system": "estrogen formation", "assay": "animal or person", "details": "Homo sapiens, read-out: EC50 (concentration achieving half-maximal response)"}}, "note": "Where a name gives a salt, the structure may show the parent alone. Read-outs that look alike come from different tables or passages of the source."}
{"molecule": "CCN(C)C(=O)Oc1cccc([C@H](C)N(C)C)c1", "note": "[Rivastigmine Tartrate, rivastigmine tartrate]", "values": [{"measurement": "Bioavailability", "setting": "[1]; oral dosage", "value": 35, "unit": "%"}]}
{"molecule": "Cc1nc2n(c(=O)c1CCN1CCC(c3noc4cc(F)ccc34)CC1)CCCC2O", "note": "(stereo not drawn) [Paliperidone, paliperidone]", "values": [{"measurement": "Bioavailability", "setting": "[1]; oral dosage", "value": 28, "unit": "%"}]}
{"molecule": "c1cnc2cc3c(cc2n1)[C@@H]1CNC[C@H]3C1", "note": "[varenicline free base, varenicline]", "values": [{"measurement": "release rate", "setting": "[2]; TECOFLEX EG-93A implant, 100 mL saline", "value": "about 1,750 μg/day"}, {"measurement": "elution rates in vitro in comparison to the salt form", "setting": "[2]; free base vs HCl or tartrate salt", "value": "higher and more stable"}]}
{"molecule": "Cc1ccc(O)c([C@H](CCN(C(C)C)C(C)C)c2ccccc2)c1", "note": "[Tolterodine Tartrate, tolterodine tartrate]", "values": [{"measurement": "Bioavailability", "setting": "[1]; oral dosage", "value": "~75", "unit": "%"}]}
{"molecule": "CCN(CC)CC#CCOC(=O)C(O)(c1ccccc1)C1CCCCC1", "note": "(stereo not drawn) [Oxybutynin HCl, oxybutynin hydrochloride]", "values": [{"measurement": "release rates from implants", "setting": "[2]; TECOFLEX EG-80A and EG-85A implants, oxybutynin HCl", "value": "suitable release rates"}, {"measurement": "elution from implants", "setting": "[2]; TECOFLEX EG-93A, TECOPHILIC HP-60D-05 and HP-60D-10 implants, oxybutynin HCl", "value": "failed to elute"}]}
{"molecule": "C[C@]12C=CC(=O)N[C@@H]1CC[C@@H]1[C@@H]2CC[C@]2(C)[C@@H](C(=O)Nc3cc(C(F)(F)F)ccc3C(F)(F)F)CC[C@@H]12", "note": "[Dutasteride, dutasteride]", "values": [{"measurement": "Bioavailability", "setting": "[1]; oral dosage", "value": "~60", "unit": "%"}]}
{"molecule": "CCN(CC)CC#CCOC(=O)C(O)(c1ccccc1)C1CCCCC1", "note": "(stereo not drawn) [oxybutynin free base, oxybutynin]", "values": [{"measurement": "elution from implants", "setting": "[2]; TECOFLEX EG-80A and EG-85A implants, oxybutynin free base", "value": "essentially streamed out"}, {"measurement": "release rates from implants", "setting": "[2]; TECOFLEX EG-93A, TECOPHILIC HP-60D-05 and HP-60D-10 implants, oxybutynin free base", "value": "suitable and controllable release rates"}, {"measurement": "Bioavailability", "setting": "[1]; oral dosage", "value": "~6", "unit": "%"}]}
{"molecule": "Cc1nc2n(c(=O)c1CCN1CCC(c3noc4cc(F)ccc34)CC1)CCCC2", "note": "[Risperidone, 4-[2-[4-(6-fluorobenzo[d]isoxazol-3-yl)-1-piperidyl]ethyl]-3-methyl-2,6-diazabicyclo[4.4.0]deca-1,3-dien-5-one]", "values": [{"measurement": "elution rate", "setting": "[2]; TECOFLEX EG-80A implant, 2% croscarmellose, 500 mL saline, week 2", "value": "about 1,450 μg/day"}, {"measurement": "elution rate", "setting": "[2]; TECOFLEX EG-80A implant, 2% croscarmellose, 500 mL saline, week 11", "value": "about 850 μg/day"}, {"measurement": "elution rate", "setting": "[2]; TECOFLEX EG-80A implant, 12% croscarmellose, 500 mL saline, week 2", "value": "about 1,800 μg/day"}, {"measurement": "elution rate", "setting": "[2]; TECOFLEX EG-80A implant, 12% croscarmellose, 500 mL saline, week 11", "value": "about 1,400 μg/day"}, {"measurement": "daily elution rates with a sorption enhancer in comparison to an implant without", "setting": "[2]; TECOFLEX EG-80A, 10% croscarmellose vs none, 200 mL saline", "value": "significantly higher"}, {"measurement": "drug release compared to no added sorption enhancer", "setting": "[2]; TECOFLEX EG-80A, 10% polyethylene oxide, sodium polyacrylate or chondroitin sulfate", "value": "increased the drug release"}, {"measurement": "drug release compared to no added sorption enhancer", "setting": "[2]; TECOFLEX EG-80A, 10% sodium carboxymethyl cellulose", "value": "increased the drug release"}, {"measurement": "drug release compared to no added sorption enhancer", "setting": "[2]; TECOFLEX EG-80A, even the smallest percentage of croscarmellose sodium", "value": "increased the drug release"}, {"measurement": "time of peak active moiety plasma concentration following administration", "setting": "[3]", "value": "≤ 3", "unit": "h"}]}
{"molecule": "Nc1nc2ncc(CNc3ccc(C(=O)N[C@@H](CCC(=O)O)C(=O)O)cc3)nc2c(=O)[nH]1", "note": "[Folic acid, folic acid]", "values": [{"measurement": "Bioavailability", "setting": "[1]; oral dosage", "value": 60, "unit": "%"}]}
{"molecule": "O=C1CCc2ccc(OCCCCN3CCN(c4cccc(Cl)c4Cl)CC3)cc2N1", "note": "[Aripiprazole, aripiprazole]", "values": [{"measurement": "Bioavailability", "setting": "[1]; oral dosage", "value": 85, "unit": "%"}]}
{"molecule": "varenicline tartrate", "values": [{"measurement": "drug release from implants", "setting": "[2]; TECOFLEX EG-80A and EG-85A implants, after a long incubation phase", "value": "released but without any control over the release"}, {"measurement": "drug release from implants", "setting": "[2]; TECOFLEX EG-93A, EG-100A, EG-65D and EG-68D implants, 200 mL saline", "value": "no drug was released"}]}
{"molecule": "CCCN(CCc1cccs1)[C@H]1CCc2c(O)cccc2C1", "note": "[Rotigotine, rotigotine]", "values": [{"measurement": "Bioavailability", "setting": "[1]; transdermal", "value": 35, "unit": "%"}]}
{"molecule": "N#Cc1ccc(C(c2ccc(C#N)cc2)n2cncn2)cc1", "note": "[Letrozole, letrozole]", "values": [{"measurement": "Bioavailability", "setting": "[1]; oral dosage", "value": 99, "unit": "%"}]}
{"molecule": "CC(C)(C#N)c1cc(Cn2cncn2)cc(C(C)(C)C#N)c1", "note": "[Anastrozole, anastrozole]", "values": [{"measurement": "duration of pseudo-zero order elution rate", "setting": "[2]; FIG. 4, aliphatic polyether-based urethane implant (Example 2)", "value": "over 400 days"}, {"measurement": "duration of pseudo-zero order elution", "setting": "[2]; FIG. 8, polyether-based polyurethane excipient", "value": "over one year"}, {"measurement": "elution profile, 9 pellets versus 7 pellets", "setting": "[2]; FIG. 10", "value": "higher elution profile"}, {"measurement": "duration of pseudo-zero order elution rate", "setting": "[2]; FIG. 13, 10% sorption enhancer (croscarmellose)", "value": "over 80 days"}, {"measurement": "duration of pseudo-zero order elution rate", "setting": "[2]; FIG. 14, 10% sodium carboxymethyl starch", "value": "over 80 days"}, {"measurement": "duration of pseudo-zero order elution rate", "setting": "[2]; FIG. 14, 10% sodium starch glycolate", "value": "over 80 days"}, {"measurement": "drug release rate on increasing sodium polyacrylate from 10% to 14% of the drug blend", "setting": "[2]; TECOFLEX EG-93A", "value": "increased the drug release rate"}, {"measurement": "elution rate", "setting": "[2]; TECOFLEX EG-93A implant, 2% croscarmellose, 50 mL saline", "value": "about 250 μg/day"}, {"measurement": "elution rate", "setting": "[2]; TECOFLEX EG-93A implant, 10% croscarmellose, 50 mL saline", "value": "about 850 μg/day"}, {"measurement": "release with increased load into the implant", "setting": "[2]; TECOFLEX EG-93A, about 125 mg to about 540 mg per implant, over 70 days", "value": "linear release"}, {"measurement": "drug release compared to no added sorption enhancer", "setting": "[2]; TECOFLEX EG-93A, even the smallest percentage of croscarmellose sodium", "value": "increased the drug release"}, {"measurement": "drug release compared to no added sorption enhancer", "setting": "[2]; TECOFLEX EG-93A, sodium polyacrylate", "value": "increased the drug release"}, {"measurement": "Hill coefficient of the concentration response curve on estrogen", "setting": "estrogen formation [4]", "value": 0.455}, {"measurement": "Bioavailability", "setting": "[1]; oral dosage", "value": "80-85%"}, {"measurement": "EC50", "setting": "estrogen formation [5]", "value": 0.000565, "unit": "ng/mL"}]}
{"molecule": "C#CCN(C)[C@H](C)Cc1ccccc1", "note": "[Selegiline HCl, selegiline HCl]", "values": [{"measurement": "Bioavailability", "setting": "[1]; buccal 1.25 mg/day", "value": 90, "unit": "%"}]}
